# According to patent US5308766A (priority 1990, dated 1994):
# What was measured:
# [1] = in vivo; cited from earlier work
# [2] = molecular target: bee venom phospholipase A2 (PLA2) (Apis mellifera, UniProt P00630); conditions: cited from earlier work
# [3] = molecular target: cobra venom phospholipase A2 (PLA2) (Naja naja, UniProt P15445); conditions: cited from earlier work
# PLA2 = conditions: modification of lysine residues; cited from earlier work
# [4] = molecular target: phospholipase A2 obtained from cobra venom (Naja naja, UniProt P15445); format: biochemical
# phospholipase A2 obtained from cobra venom, sequence (P15445 whole entry, looked up): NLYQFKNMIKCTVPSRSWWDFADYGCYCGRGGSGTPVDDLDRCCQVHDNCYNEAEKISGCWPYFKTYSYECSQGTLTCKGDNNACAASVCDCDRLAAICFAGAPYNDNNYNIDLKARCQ
# [5] = Stability of p-nitrophenyl esters in solvents; format: physicochemical; conditions: polar solvents such as alcohols
# Experimental: Pure samples of 1a-1e were obtained after HPLC chromatography using anhydrous MeOH to elute the lipid from a Brownlee C18 column. […] Storage of these compounds at -10° C. in CHCl3 or CH2 Cl2 greatly enhances the stability. Therefore, HPLC-purified SIBLINKS were immediately transferred to CHCl3 for storage. In an aqueous environment, the stability is enhanced when incorporated into vesicles or Triton micelles. The following are representative spectral data for lipids 1b, 1c, 1d and 1e containing a decanoyl (C10) chain moiety at the sn-1 position.
# [6] = molecular target: PLA2 obtained from cobra venom (N. naja naja) (Naja naja, UniProt P15445); format: biochemical
# PLA2 obtained from cobra venom (N. naja naja), sequence (P15445 whole entry, looked up): as above
# [7] = molecular target: phospholipase A2 obtained from cobra venom (Naja naja naja) (Naja naja, UniProt P15445); format: biochemical
# phospholipase A2 obtained from cobra venom (Naja naja naja), sequence (P15445 whole entry, looked up): as above
# cobra venom phospholipase A2 (PLA2), sequence (P15445 whole entry, looked up): as above
# bee venom phospholipase A2 (PLA2), sequence (P00630 34-167 limits assumed): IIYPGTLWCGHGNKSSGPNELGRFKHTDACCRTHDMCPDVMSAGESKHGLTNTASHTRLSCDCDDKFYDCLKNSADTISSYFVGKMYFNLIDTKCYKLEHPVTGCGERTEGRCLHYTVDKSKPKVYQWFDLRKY
Structure (SMILES),effect on P of raising preincubation temperature [4],effect on inactivation time course of raising preincubation temperature [4],efficiency of enzymatic deactivation (suicide inhibition) [4],stability of p-nitrophenyl ester [5],"V, initial velocity for release of p-nitrophenol [6] [µmol/min/mg]",also measured
CC1=C(CC/C(C)=C/CCC2=CC[C@H](C3=CC(=O)O[C@H]3O)O[C@H]2O)C(C)(C)CCC1 [manoalide],,,,,,anti-inflammatory activity [1]: anti-inflammatory activity in vivo; inhibition of bee venom PLA2 [2]: inhibitor of both cobra and bee venom phospholipase A2; inhibition of cobra venom PLA2 [3]: inhibitor of both cobra and bee venom phospholipase A2; mode of PLA2 inactivation (PLA2): time-dependent irreversible inactivation
CCCCCCCCCC(=O)OC[C@H](COP(=O)([O-])OCC[N+](C)(C)C)OC(=O)CCC(=O)Oc1ccc([N+](=O)[O-])cc1 [1d],did increase P,little effect,"less efficient, but is processed faster",especially prone to hydrolysis,0.6,concentration below which mixed micelles do not inhibit [4]: 20 NM; ratio of inhibitor/PLA2 needed to observe inhibition [4]: > 40
CCCCCCCCCC(=O)OC[C@H](COP(=O)([O-])OCC[N+](C)(C)C)OC(=O)CC(C)(C)C(=O)Oc1ccc([N+](=O)[O-])cc1 [1e],,,more efficient suicide inhibitors,,0.005,
CCCCCCCCCC(=O)OC[C@H](COP(=O)([O-])OCC[N+](C)(C)C)OC(=O)CCCC(=O)Oc1ccc([N+](=O)[O-])cc1 [compound 1a],,,,especially prone to hydrolysis,155,"change of hydrolysis rate with Triton/phospholipid surface ratio [7]: diminishes three-fold; concentration of substrate required to reach half saturation, versus DPPC [7]: lower concentration of substrate"
CCCCCCCCCC(=O)OC[C@H](COP(=O)([O-])OCC[N+](C)(C)C)OC(=O)CC(C)(C)CC(=O)Oc1ccc([N+](=O)[O-])cc1 [1c],,,more efficient suicide inhibitors,,0.002,
CCCCCCCCCC(=O)OC[C@H](COP(=O)([O-])OCC[N+](C)(C)C)OC(=O)CCC(C)(C)C(=O)Oc1ccc([N+](=O)[O-])cc1 [compound 1b],did increase P,little effect,more efficient suicide inhibitors,,0.11,
